{
  "source": "patent US6291678A",
  "about": "“Process for the preparation of chiral keto-heterocycles of basic amino acids” (Warner-Lambert Company, priority 1998, dated 2001)",
  "key": {"trypsin": {"molecular_target": "T1, trypsin (Bos taurus, UniProt P00760)", "T1 sequence (P00760 24-246)": "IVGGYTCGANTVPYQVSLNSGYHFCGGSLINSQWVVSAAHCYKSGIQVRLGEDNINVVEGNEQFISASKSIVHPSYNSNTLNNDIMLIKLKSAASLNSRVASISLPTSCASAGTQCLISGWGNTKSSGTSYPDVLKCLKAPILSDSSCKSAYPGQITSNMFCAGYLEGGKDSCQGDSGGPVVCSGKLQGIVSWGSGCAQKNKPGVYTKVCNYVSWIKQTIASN", "assay": "Trypsin inhibitory activity (chromogenic substrate S2222)", "assay_type": "biochemical", "conditions": "protocol similar to thrombin", "procedure": "The ability of compounds to act as inhibitors of thrombin catalytic activity is assessed by determination of that concentration of test substance that inhibits by 50% (IC50) the ability of thrombin to cleave the chromogenic substrate S-2238 (H-D-Phe-L-Pip-L-Arg-p-nitroanilide.2 HCl). Typically thrombin in 10 mM HEPES, 100 mM NaCl, 0.05% BSA, and 0.1% PEG-8000 and the test substance in DMSO are incubated for 60 minutes at room temperature. To this mixture is added S-2238 and the velocity of S-2238 hydrolysis measured by observing the intensity of absorbance at 405 nm over 5 minutes.\nA similar protocol is followed to access the trypsin inhibitory activity of the test substances, except thrombin is replaced by trypsin and the chromogenic substrate is S2222 (N-Bz-L-Ile-L-Glu-L-Gly-L-Arg-p-nitroanilide.HCl)."}, "thrombin": {"molecular_target": "thrombin (Homo sapiens, UniProt P00734)", "assay": "Inhibition of thrombin catalytic activity (cleavage of chromogenic substrate S-2238)", "assay_type": "biochemical", "conditions": "S-2238 substrate; 60 minutes incubation at room temperature; absorbance at 405 nm over 5 minutes", "procedure": "Typically thrombin in 10 mM HEPES, 100 mM NaCl, 0.05% BSA, and 0.1% PEG-8000 and the test substance in DMSO are incubated for 60 minutes at room temperature."}, "rat carotid artery": {"tested_on": "rat carotid artery", "assay": "Rat arterial model of thrombosis (FeCl3 injury of the carotid artery), markers of anticoagulant activity in vivo", "conditions": "for Fold Shift in aPTT: activated partial thromboplastin time at 30 minute time point, control aPTT 15 s; for Fold Shift in aPTT / Fold Shift in TT: loading dose 0.75 mg/kg plus infusion of 50 μg/kg/min; for Fold Shift in MOT: mean occlusion time, loading dose 0.75 mg/kg plus continual infusion of 50 μg/kg/min, control MOT 20 minutes; for Fold Shift in TT: thrombin time at 30 minute time point, control TT 30 s", "procedure": "The ability of compounds to affect markers of anticoagulant activity in vivo were assessed in a rat arterial model of thrombosis. This model requires injury of the rat carotid artery by the application of a FeCl3 solution. Typically test substances are administered by applying a loading dose of 0.75 mg/kg plus continual infusion of 50 μg/kg/min.\nThe fold shift in aPTT and TT are measured at a 30 minute time point."}},
  "data": [
    {"smiles": "N=C(N)NCCC[C@H](NC(=O)[C@@H]1CC[C@H]2CN(C(=O)CCc3ccccc3)CC(=O)N21)C(=O)c1nccs1", "note": "[A]", "values": [
      {"measurement": "IC50", "setting": "trypsin", "result": 1, "unit": "nM"},
      {"measurement": "IC50", "setting": "thrombin", "result": 5, "unit": "nM"},
      {"measurement": "Fold Shift in aPTT", "setting": "rat carotid artery", "result": 3.2},
      {"measurement": "Fold Shift in MOT", "setting": "rat carotid artery", "result": 2.4},
      {"measurement": "Fold Shift in TT", "setting": "rat carotid artery", "result": 13}
    ]},
    {"smiles": "N=C(N)N1CCC[C@@H](C[C@H](NC(=O)[C@@H]2CC[C@H]3CN(C(=O)CCc4ccccc4)CC(=O)N32)C(=O)c2nccs2)C1", "note": "[B]", "values": [
      {"measurement": "IC50", "setting": "trypsin", "result": 4350, "unit": "nM"},
      {"measurement": "IC50", "setting": "thrombin", "result": 30, "unit": "nM"},
      {"measurement": "Fold Shift in aPTT", "setting": "rat carotid artery", "result": 3.1},
      {"measurement": "Fold Shift in MOT", "setting": "rat carotid artery", "result": "> 3"},
      {"measurement": "Fold Shift in TT", "setting": "rat carotid artery", "result": 15}
    ]}
  ]
}
